Experimental data reported in patent US20250353873A1, “COMPOUNDS AND METHODS FOR MODULATING APOE EXPRESSION” (Ionis Pharmaceuticals, Inc., priority 2024, published 2025).
pIC50: −log10 of the molar value. Several values for one entry are separate records, joined by “and”; a condition that tells them apart may be missing. Identical values can stand only once. Strand notation (5' to 3'): a small letter for the sugar, then the base; units joined by * are phosphorothioate-linked, units joined directly phosphodiester-linked; [ ] holds rarer units or linkages, { } end groups; capitals alone tell only the bases. [ms] = mesyl phosphoramidate linkage; e = 2'-O-(2-methoxyethyl) (MOE); [5mC] = 5-methylcytosine; d = 2'-deoxy (DNA)

How the values were obtained:
[1] = test system: human APOE RNA; assay: Activity in APOE 1549 knock-in mice, single ICV bolus, 2 weeks (Example 7); format: in vivo; settings: single ICV bolus of 300 μg, two weeks post treatment
Protocol: Modified oligonucleotides described above were tested in APOE knock-in mice.
APOE knock-in mice (model 41549) were obtained from Taconic Biosciences. APOE knock-in mice were divided into groups of 2 mice each. Each mouse received a single intracerebroventricular (ICV) bolus of 300 μg of modified oligonucleotide. A group of 4 mice received a single ICV bolus with PBS as a negative control.
Two weeks post treatment, mice were sacrificed and RNA was extracted from cortical brain tissue and spinal cord for quantitative real-time RT-PCR analysis of RNA expression of APOE using primer probe set RTS3073 (described herein above). APOE RNA levels were normalized to mouse Ppia. Mouse Ppia was amplified using primer probe set m_cyclo24 (forward sequence TCGCCGCTTGCTGCA, designated herein as SEQ ID NO: 16; reverse sequence ATCGGCCGTGATGTCGA, designated herein as SEQ ID NO: 17; probe sequence […], designated herein as SEQ ID NO: 18). Results are presented as percent human APOE RNA relative to the amount of human APOE RNA in PBS treated animals, (% control). Each experiment is identified in separate tables below.

[2] = test system: human APOE RNA; assay: Activity in APOE C57BL/6NTac-Apoeem7250 knock-in mice, single ICV bolus, 4 weeks (Example 10); format: in vivo; settings: single ICV bolus 300 μg
How it was run: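 Knock-in mice (2–4 per group) received one 300 μg ICV bolus of oligonucleotide or PBS. After four weeks, human APOE RNA in cortex and spinal cord measured by RT-qPCR (primer probe set RTS3073), normalized to mouse Ppia, expressed as % of PBS controls.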

[3] = test system: human APOE RNA; assay: Activity in APOE C57BL/6NTac-Apoeem7250 knock-in mice, single ICV bolus, 2 weeks (Example 9); format: in vivo; settings: single ICV bolus 300 μg
Protocol: Modified oligonucleotides described above were tested in the APOE knock-in mouse model C57BL/6NTac-Apoeem7250_B-A02(APOE)Tac, a heterozygous APOE mouse model. APOE knock-in mice used in this study express the full-length human APOE gene knocked into the mouse locus. Humanization of APOE gene was done via CRISPR/Cas-9-mediated gene editing, allowing for generation of a model with constitutive expression of human APOE gene. Targeting strategy was based on NCBI transcripts NM_009696.4 (mouse) and NM_000041.4 (human). Mouse genomic sequence from exon 1 to exon 4 (including the 5′ and 3′ UTRs) was replaced with the human counterpart from 141 bp upstream of exon 1 to 28 bp downstream of exon 4. A plasmid allowing expression of Cas9 mRNA, specific gRNA, and the puromycin resistance cassette, and a plasmid containing the homology regions of the mouse APOE gene, and the replaced human region were co-transfected into the Taconic Biosciences C57BL/6N Tac ES cell line. Homologous recombination clones were isolated using positive puromycin selection, and humanized allele was obtained after Cas9-mediated gene editing. C57BL/6NTac-Apoeem7250_B-A02(APOE)Tac mice were used in the in vivo experiments described below.
APOE C57BL/6NTac-Apoeem7250 knock-in mice were divided into groups of 3 mice each. Each mouse received a single ICV bolus of 300 μg of modified oligonucleotide. A group of 3 mice received a single ICV bolus with PBS as a negative control.
Two weeks post treatment, mice were sacrificed and RNA was extracted from cortical brain tissue and spinal cord for quantitative real-time RT-PCR analysis of RNA expression of APOE using human primer probe set RTS3073 (described herein above). APOE RNA levels were normalized to mouse Ppia. Mouse Ppia was amplified using primer probe set m_cyclo24 (described herein above). Results are presented as percent human APOE RNA relative to the amount of human APOE RNA in PBS treated animals, (% control).

[4] = test system: human APOE RNA; assay: Activity in APOE C57BL/6NTac-Apoeem7250 knock-in mice, single ICV bolus, 16 weeks (Example 12); format: in vivo; settings: single ICV bolus 300 μg, 16 weeks post treatment, normalized to mouse Ppia
How it was run: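 Knock-in mice (3-4 per group) received one ICV bolus of 300 μg oligonucleotide, PBS as control. After 16 weeks, human APOE RNA in cortex and spinal cord measured by RT-qPCR, normalized to mouse Ppia, and reported as % of PBS control.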

[5] = test system: human APOE RNA; assay: Activity in APOE C57BL/6NTac-Apoeem7250 knock-in mice, single ICV bolus, 8 weeks (Example 11); format: in vivo; settings: for APOE RNA (% control) Cortex / APOE RNA (% control) Spinal Cord: single ICV bolus 300 μg, 8 weeks post treatment, normalized to mouse Ppia; for reduction of human APOE RNA in the cortex: APOE knock-in mouse model, 8 weeks post administration, assay of Example 11
How it was run: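 Human APOE knock-in C57BL/6NTac mice given one ICV bolus of 300 μg oligonucleotide; PBS-dosed group as control. At 8 weeks, cortex and spinal cord RNA measured by qRT-PCR (human probe RTS3073), normalized to mouse Ppia, expressed as % of PBS control.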

[6] = test system: human APOE RNA; assay: Dose-dependent inhibition of human APOE RNA in HepG2 cells, electroporation, 24 hours (Example 6); format: cell-based
How it was run: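 HepG2 cells, 50,000 per well, electroporated with various oligonucleotide concentrations. APOE RNA measured with primer probe set RTS3073, normalized to GAPDH (RTS104), expressed as % of untreated control; IC50 then calculated.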

[7] = test system: BJAB cells; settings: known behaviour in the assay; cited from earlier work
[8] = test system: human APOE RNA; assay: Activity in APOE C57BL/6NTac-Apoeem7250 knock-in mice, single ICV bolus, 20 weeks (Example 13); format: in vivo; settings: single ICV bolus 300 μg, 20 weeks post treatment, normalized to mouse Ppia
How it was run: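 Knock-in mice (n=4) given a single ICV bolus of 300 μg oligonucleotide, PBS as control. After 20 weeks, human APOE RNA in cortex and spinal cord measured by RT-qPCR, normalized to mouse Ppia, expressed as % of PBS-treated animals.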

[9] = test system: BJAB cells
Protocol: Human APOE modified oligonucleotides were tested for potential immunostimulatory properties in an in vitro human BJAB activation assay.
Human Burkitt lymphoma B cells, BJAB cells (DSMZ, Cat #ACC 757) were cultured in RPMI1640 medium containing 20% fetal bovine serum at 37° C. and 5% CO2. Cells were maintained at a density of 0.5-0.7×10^6 cells per milliliter. Cells were transferred to 50 mL conical Falcon tubes and centrifuged at 330 RCF for 5 minutes before being resuspended at a concentration of 7.5×10^4 cells per milliliter in RPMI culture medium containing penicillin and streptomycin. 50 μL of the cell suspension was added to a v-bottom tissue culture treated 96-well microplate. 11 μl of 10× concentrated modified oligonucleotides was then added to the plate for a final concentration of 1.6 μM and incubated for 24 hours at 37° C. and 5% CO2.
After a treatment period of 24 hours, total RNA was isolated from the cells and CCL22 RNA levels were measured by quantitative real-time RT-PCR. CCL22 RNA levels were measured by human primer-probe set RTS49260 (forward sequence [sequence], designated herein as SEQ ID NO: 19; reverse sequence [sequence], designated herein as SEQ ID NO: 20; probe sequence [sequence], designated herein as SEQ ID NO: 21). CCL22 RNA levels were normalized to total RNA content, as measured by GAPDH. Human GAPDH was measured using the human primer-probe set RTS104 (forward sequence [sequence], designated herein as SEQ ID NO: 10; reverse sequence [sequence], designated herein as SEQ ID NO: 11; probe sequence [sequence], designated herein as SEQ ID NO: 12). Levels of CCL22 RNA is presented log fold increase of CCL22, relative to untreated control cells (UTC). The assignment of the immunostimulatory properties of the test compounds is based on the immunostimulatory properties of the internal control compounds in each assay.

[10] = test system: human APOE RNA; assay: Dose-dependent inhibition of human APOE RNA in HepG2 cells, electroporation, 50,000 cells per well, RT-PCR normalized to GAPDH (Example 4, Tables 8-10); format: cell-based; settings: HepG2, electroporation, 16-hour treatment
How it was run: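 HepG2 cells, 50,000 per well, electroporated with modified oligonucleotide at various concentrations. APOE RNA quantified by RT-PCR with human primer probe set RTS3073, normalized to GAPDH. Values are percent APOE RNA relative to untreated control cells.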

[11] = Cortex, C57BL/6NTac-Apoeem7250 knock-in mice, 4 weeks (Table 21)
[12] = Cortex, C57BL/6NTac-Apoeem7250 knock-in mice, 4 weeks (Table 22)
[13] = Spinal Cord, C57BL/6NTac-Apoeem7250 knock-in mice, 4 weeks (Table 21)
[14] = Spinal Cord, C57BL/6NTac-Apoeem7250 knock-in mice, 4 weeks (Table 22)

Row | Substance | APOE RNA (% control) Cortex ([1]; Table 17) | APOE RNA (% control) Spinal Cord ([1]; Table 17) | APOE RNA (% control) Cortex [2, 11] | APOE RNA (% control) Cortex [2, 12] | APOE RNA (% control) Spinal Cord [2, 13] | APOE RNA (% control) Spinal Cord [2, 14] | APOE RNA (% control) Cortex [3] | APOE RNA (% control) Spinal Cord [3] | APOE RNA (% control) Cortex [4] | APOE RNA (% control) Spinal Cord [4] | APOE RNA (% control) Cortex [5] | APOE RNA (% control) Spinal Cord [5] | pIC50 [6] | APOE RNA (% UTC) ([6]; 5 nM) | APOE RNA (% UTC) ([6]; 13 nM) | APOE RNA (% UTC) ([6]; 33 nM) | APOE RNA (% UTC) ([6]; 82 nM) | APOE RNA (% UTC) ([6]; 205 nM) | APOE RNA (% UTC) ([6]; 512 nM) | APOE RNA (% UTC) ([6]; 1,280 nM) | also measured
1 | 1693101: 6-10-4 MOE gapmer CTTGGTGAATCTTTATTAAA, linkages sssssozzzssssszssss (e[5mC]*eT*eT*eG*eG*eTdG[ms]dA[ms]dA[ms]dT*d[5mC]*dT*dT*dT*dA[ms]dT*eT*eA*eA*eA) [compound 1693101] | 79 % control | 57 % control | 71 % control | 57 % control | 50 % control | 77 % control | 62 % control | 55 % control | 71 % control | 56 % control | 58 % control | 46 % control | 5.39 | 70 % UTC | 91 % UTC | 120 % UTC | 111 % UTC | 95 % UTC | 75 % UTC | 53 % UTC | APOE RNA (% control) Cortex ([2]; cortex, 4 weeks post treatment, normalized to mouse Ppia): 57 % control; APOE RNA (% control) Spinal Cord ([2]; spinal cord, 4 weeks post treatment, normalized to mouse Ppia): 56 % control; APOE RNA (% UTC) ([6]; 3,200 nM): 58 % UTC; APOE RNA (% UTC) ([6]; 8,000 nM): 49 % UTC; APOE RNA (% UTC) ([6]; 20,000 nM): 20 % UTC
2 | 1693102: 6-10-4 MOE gapmer CTTGGTGAATCTTTATTAAA, linkages ssssoszzzssssszssss (e[5mC]*eT*eT*eG*eGeT*dG[ms]dA[ms]dA[ms]dT*d[5mC]*dT*dT*dT*dA[ms]dT*eT*eA*eA*eA) [compound 1693102] | 60 % control | 45 % control | 61 % control | 55 % control | 48 % control | 72 % control | 51 % control | 51 % control | 69 % control | 41 % control | 58 % control | 43 % control | 5.93 | 89 % UTC | 95 % UTC | 87 % UTC | 92 % UTC | 80 % UTC | 64 % UTC | 48 % UTC | APOE RNA (% UTC) ([6]; 3,200 nM): 32 % UTC; APOE RNA (% UTC) ([6]; 8,000 nM): 22 % UTC; APOE RNA (% UTC) ([6]; 20,000 nM): 10 % UTC
3 | Compound No. 104838: 5-10-5 MOE gapmer, GCTGATTAGAGAGAGGTCCC, internal standard (negative control) (sugars from the 5' end e5 d10 e5, backbone and methylation of C not given here) |  |  |  |  |  |  |  |  |  |  |  |  |  |  |  |  |  |  |  |  | responder class for CCL22 release in the BJAB assay (internal standard) [7]: non-responder (non-inflammatory)
4 | Compound No. 353512: 3-14-3 MOE gapmer, TCCCATTTCAGGAGACCTGG, internal standard (sugars from the 5' end e3 d14 e3, backbone and methylation of C not given here) |  |  |  |  |  |  |  |  |  |  |  |  |  |  |  |  |  |  |  |  | responder class for CCL22 release in the BJAB assay (internal standard) [7]: high responder (inflammatory)
5 | Compound No. 1517853: comparator of WO 2022/066956; TTGGTGAATCTTTATTAAAC, sugar eeeeeddddddddddeeeee, linkages sooosssssssssssooss (MOE gapmer, mixed PS/PO linkages, chemistry not fully specified) [reference compound] |  |  |  |  |  |  |  |  |  |  | 67 % control | 50 % control |  |  |  |  |  |  |  |  | APOE RNA (% control) Cortex ([1]; Table 16): 53 % control; APOE RNA (% control) Spinal Cord ([1]; Table 16): 65 % control; APOE RNA (% control) Cortex [8]: 99 % control; APOE RNA (% control) Spinal Cord [8]: 98 % control; reduction of human APOE RNA in the cortex [5]: 33%; inflammatory response in human BJAB cells [9]: highly inflammatory
6 | Compound No. 1517891: comparator of WO 2022/066956; ACTTGGTGAATCTTTATTAA, sugar eeeeeddddddddddeeeee, linkages sooosssssssssssooss (MOE gapmer, mixed PS/PO linkages, chemistry not fully specified) [reference compound] |  |  |  |  |  |  |  |  |  |  | 56 % control | 29 % control |  |  |  |  |  |  |  |  | APOE RNA (% control) Cortex ([1]; Table 16): 49 % control; APOE RNA (% control) Spinal Cord ([1]; Table 16): 65 % control; APOE RNA (% control) Cortex [8]: 93 % control and 97 % control; APOE RNA (% control) Spinal Cord [8]: 92 % control and 71 % control; reduction of human APOE RNA in the cortex [5]: 44%; inflammatory response in human BJAB cells [9]: mildly inflammatory; APOE RNA (% UTC) ([10]; 5 nM): 82 % UTC; APOE RNA (% UTC) ([10]; 13 nM): 75 % UTC; APOE RNA (% UTC) ([10]; 33 nM): 81 % UTC; APOE RNA (% UTC) ([10]; 82 nM): 83 % UTC; APOE RNA (% UTC) ([10]; 205 nM): 65 % UTC; APOE RNA (% UTC) ([10]; 512 nM): 48 % UTC; APOE RNA (% UTC) ([10]; 1,280 nM): 36 % UTC; APOE RNA (% UTC) ([10]; 3,200 nM): 36 % UTC; APOE RNA (% UTC) ([10]; 8,000 nM): 17 % UTC; pIC50 [10]: 6.26
